# Assay results published in paper PMC7271948, “A baculoviral system for the production of human β-glucocerebrosidase enables atomic resolution analysis” (Acta Crystallographica. Section D, Structural Biology, 2020).
# What was measured:
# [1] = target: T1, β-glucocerebrosidase (GBA) (Homo sapiens, UniProt P04062); test: X-ray crystal structure at […] Å; IC50 against 4-MU-Glc hydrolysis at pH […]; format: biochemical
# T1 construct: gene GBA1
# T1 sequence (P04062 40-536): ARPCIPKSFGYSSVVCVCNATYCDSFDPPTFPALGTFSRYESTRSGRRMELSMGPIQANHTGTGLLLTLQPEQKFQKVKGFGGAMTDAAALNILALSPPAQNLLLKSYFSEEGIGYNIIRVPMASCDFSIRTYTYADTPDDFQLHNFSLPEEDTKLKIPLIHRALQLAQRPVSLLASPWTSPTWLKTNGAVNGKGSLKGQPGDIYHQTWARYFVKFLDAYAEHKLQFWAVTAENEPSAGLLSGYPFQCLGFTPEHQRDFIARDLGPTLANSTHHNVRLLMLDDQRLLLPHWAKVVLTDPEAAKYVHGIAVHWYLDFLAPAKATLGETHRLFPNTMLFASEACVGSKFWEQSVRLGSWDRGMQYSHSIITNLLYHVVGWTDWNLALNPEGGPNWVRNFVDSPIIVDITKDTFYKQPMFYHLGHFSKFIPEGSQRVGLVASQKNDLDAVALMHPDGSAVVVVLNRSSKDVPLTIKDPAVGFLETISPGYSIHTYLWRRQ
# [2] = target: T1, β-glucocerebrosidase (GBA); test: X-ray crystal structure at […] Å, crystals soaked with 2F-DNPGlc; format: binding
SMILES,IC50 [1],"X-ray crystal structure at 1.41 Å, crystals soaked with 2F-DNPGlc [2]"
"OCC(CO)(CO)NCCCNC(CO)(CO)CO [BTP, bis-Tris propane]",4.31 ± 0.42 mM,–
"O=[N+]([O-])c1ccc(O[C@@H]2O[C@H](CO)[C@@H](O)[C@H](O)[C@H]2F)c([N+](=O)[O-])c1 [2F-DNPGlc, 2,4-dinitrophenyl-2-deoxy-2-fluoro-β-D-glucopyranoside]",–,showing unambiguous electron density for covalent binding of the 2-deoxy-2-fluoroglucose moiety to the catalytic nucleophile
